Patent publication US20250179047A1, “5-[7-(3,4-DIHYDRO-1H-ISOQUINOLINE-2-CARBONYL)-1,2,3,4 TETRAHYDROISOQUINOLIN-6-YL]-1H-PYRROLE-3-CARBOXAMIDE DERIVATIVES, PHARMACEUTICAL COMPOSITIONS CONTAINING THEM AND THEIR USES AS PRO-APOPTOTIC AGENTS” (LES LABORATOIRES SERVIER, priority 2022, published 2025)

Columns and labels:
Type in all cases: cell-based
[1] = tested on: KMS-12-PE Bcl-2 G101V; assay: In vitro cytotoxicity CellTiter-Glo 48 h, KMS-12-PE Bcl-2 G101V
Method in brief: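 Transduce KMS-12-PE with Bcl-2 WT or G101V lentivirus, then FACS-sort RFP-positive cells. Add compounds in an 11-point dilution series and incubate 48 h at 37 °C. Measure ATP-based luminescence with CellTiter-Glo and derive C50 (50% viability).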

[2] = tested on: KMS12PE Bcl2 WT; assay: In vitro cytotoxicity CellTiterGlo 72 h, KMS12PE Bcl2 WT; conditions: Homo sapiens, KMS-12-PE, read-out: C50 nM, KMS12PE Bcl2 WT
Protocol: (§1) KMS-12-PE (ACC 606) were purchased from the Leibniz-Institute DSMZ (Braunschweig, Germany) and were grown at 37° C. in a humidified atmosphere with 5% CO2 in media recommended by the suppliers. Lentiviral particles containing Bcl-2 wild type (also named “Bcl2 WT”), Bcl-2 mutated on G101V (also named “Bcl2 G101V”), Bcl-2 mutated on D103Y (also named “Bcl2 D103Y”), Bcl-2 mutated on D103V (also named “Bcl2 D103V”), Bcl-2 mutated on D103E (also named “Bcl2 D103E”), Bcl-2 mutated on F104I (also named “Bcl2 F104I”), Bcl-2 mutated on F104L (also named “Bcl2 F104L”), Bcl-2 mutated on D111A (also named “Bcl2 D111A”), Bcl-2 mutated on A113G (also named “Bcl2 A113G”), Bcl-2 mutated on R129L (also named “Bcl2 R129L”), Bcl-2 mutated on V156D (also named “Bcl2 V156D”) were cloned into pcLV-CMV-DEST-IRES-TagRFP. Lentiviral particles (1×10^6) were mixed with Polybrene at 8 μg/ml and transduced by spinoculation for 1 h at 32° C. and incubated overnight. After 8 days, TagRFP positive-cells were sorted by FACS. BCL2 expression was monitored by immunoblotting using anti-Flag and anti-BCL2 antibodies. Cells were seeded into 96-wells plates and treated with 1:3.16 serial dilution of compounds (9 different concentrations). Cell viability was assessed using CellTiterGlo reagent following treatment for 72 h. Results were normalized to the viability of cells without compounds (control wells). The C50 values were calculated using nonlinear regression algorithms in XCell software.

[3] = tested on: KMS12PE Bcl2 G101V; assay: In vitro cytotoxicity CellTiterGlo 72 h, KMS12PE Bcl2 G101V; conditions: Homo sapiens, KMS-12-PE, read-out: C50 nM, KMS12PE Bcl2 G101V
Protocol: as §1

[4] = tested on: KMS12PE Bcl2 D103Y; assay: In vitro cytotoxicity CellTiterGlo 72 h, KMS12PE Bcl2 D103Y; conditions: Homo sapiens, KMS-12-PE, read-out: C50 nM, KMS12PE Bcl2 D103Y
Protocol: as §1

[5] = tested on: KMS12PE Bcl2 F104I; assay: In vitro cytotoxicity CellTiterGlo 72 h, KMS12PE Bcl2 F104I; conditions: Homo sapiens, KMS-12-PE, read-out: C50 nM, KMS12PE Bcl2 F104I
Protocol: as §1

Cc1c(N(C(=O)c2cc(-c3cc4c(cc3C(=O)N3Cc5ccccc5C[C@H]3CN3CCC[C@H](C)C3)CN(C(=O)Cc3ccc(OCCN5CCOCC5)cc3F)CC4)n(C)c2C)c2ccc(O)cc2)cc(C#N)n1C [Example 107]
Ratio (G101V/WT) ([1]; C50 KMS-12-PE Bcl-2 G101V over C50 KMS-12-PE Bcl-2 WT): 4.47 | IC50 ([1]; Homo sapiens, KMS-12-PE, 48 h, CellTiter-Glo, C50 = concentration needed to reach 50% of the cellular viability): 0.0166 µM | IC50 [2]: 1.59 nM | IC50 [3]: 9.13 nM | IC50 [4]: 0.97 nM | IC50 [5]: 23.6 nM
